Legend:
Test in all cases: Nanosyn kinase profiling
Assay type in all cases: biochemical
Details in all cases: read-out: Percentage inhibition; for inhibition at 0.1 µM: 0.1 µM inhibitor; for inhibition at 1 µM: 1 µM inhibitor
AURKC = biological target: T1, AURKC (Homo sapiens, UniProt Q9UQB9)
T1 construct: purchased Nanosyn (enzymatic panel); SGC in-house recombinant human kinases (DSF panel); Invitrogen (ALK1-6)
T1 sequence (Q9UQB9 1-309): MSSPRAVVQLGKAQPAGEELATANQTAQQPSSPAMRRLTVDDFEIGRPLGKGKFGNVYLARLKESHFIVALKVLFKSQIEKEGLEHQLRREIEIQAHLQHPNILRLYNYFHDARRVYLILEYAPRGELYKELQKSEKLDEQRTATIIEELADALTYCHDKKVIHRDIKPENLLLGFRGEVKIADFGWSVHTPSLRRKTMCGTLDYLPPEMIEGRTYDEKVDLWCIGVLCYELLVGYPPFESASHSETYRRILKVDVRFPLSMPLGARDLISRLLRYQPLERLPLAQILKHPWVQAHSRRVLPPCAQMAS
How it was run: (§1)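 Percent inhibition of each kinase was measured with the inhibitor at 0.1 µM and at 1 µM, as part of a 200-kinase human selectivity panel.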

SGK2 = biological target: T2, SGK2 (Homo sapiens, UniProt Q9HBY8)
T2 construct: purchased Nanosyn (enzymatic panel); SGC in-house recombinant human kinases (DSF panel); Invitrogen (ALK1-6)
T2 sequence (Q9HBY8 1-367): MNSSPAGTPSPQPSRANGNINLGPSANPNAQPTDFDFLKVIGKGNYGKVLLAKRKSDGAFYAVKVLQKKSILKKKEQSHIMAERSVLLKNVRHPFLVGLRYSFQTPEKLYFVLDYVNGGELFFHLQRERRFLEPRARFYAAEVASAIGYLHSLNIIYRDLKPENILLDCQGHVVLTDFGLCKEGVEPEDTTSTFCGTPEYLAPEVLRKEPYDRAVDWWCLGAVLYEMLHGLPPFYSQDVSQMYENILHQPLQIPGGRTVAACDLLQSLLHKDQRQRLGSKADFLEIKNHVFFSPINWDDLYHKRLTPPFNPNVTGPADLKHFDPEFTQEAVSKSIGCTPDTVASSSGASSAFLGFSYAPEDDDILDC
How it was run: as §1

PI3-K-δ = biological target: T3, PI3-K-δ (Homo sapiens, UniProt O00329)
T3 construct: purchased Nanosyn (enzymatic panel); SGC in-house recombinant human kinases (DSF panel); Invitrogen (ALK1-6)
How it was run: as §1

TIE2 = biological target: T4, TIE2 (Homo sapiens, UniProt Q02763)
T4 construct: purchased Nanosyn (enzymatic panel); SGC in-house recombinant human kinases (DSF panel); Invitrogen (ALK1-6)
How it was run: as §1

KIT = biological target: T5, KIT (Homo sapiens, UniProt P10721)
T5 construct: purchased Nanosyn (enzymatic panel); SGC in-house recombinant human kinases (DSF panel); Invitrogen (ALK1-6)
How it was run: as §1

TYRO3 = biological target: T6, TYRO3 (Homo sapiens, UniProt Q06418)
T6 construct: purchased Nanosyn (enzymatic panel); SGC in-house recombinant human kinases (DSF panel); Invitrogen (ALK1-6)
T6 sequence (Q06418 41-890): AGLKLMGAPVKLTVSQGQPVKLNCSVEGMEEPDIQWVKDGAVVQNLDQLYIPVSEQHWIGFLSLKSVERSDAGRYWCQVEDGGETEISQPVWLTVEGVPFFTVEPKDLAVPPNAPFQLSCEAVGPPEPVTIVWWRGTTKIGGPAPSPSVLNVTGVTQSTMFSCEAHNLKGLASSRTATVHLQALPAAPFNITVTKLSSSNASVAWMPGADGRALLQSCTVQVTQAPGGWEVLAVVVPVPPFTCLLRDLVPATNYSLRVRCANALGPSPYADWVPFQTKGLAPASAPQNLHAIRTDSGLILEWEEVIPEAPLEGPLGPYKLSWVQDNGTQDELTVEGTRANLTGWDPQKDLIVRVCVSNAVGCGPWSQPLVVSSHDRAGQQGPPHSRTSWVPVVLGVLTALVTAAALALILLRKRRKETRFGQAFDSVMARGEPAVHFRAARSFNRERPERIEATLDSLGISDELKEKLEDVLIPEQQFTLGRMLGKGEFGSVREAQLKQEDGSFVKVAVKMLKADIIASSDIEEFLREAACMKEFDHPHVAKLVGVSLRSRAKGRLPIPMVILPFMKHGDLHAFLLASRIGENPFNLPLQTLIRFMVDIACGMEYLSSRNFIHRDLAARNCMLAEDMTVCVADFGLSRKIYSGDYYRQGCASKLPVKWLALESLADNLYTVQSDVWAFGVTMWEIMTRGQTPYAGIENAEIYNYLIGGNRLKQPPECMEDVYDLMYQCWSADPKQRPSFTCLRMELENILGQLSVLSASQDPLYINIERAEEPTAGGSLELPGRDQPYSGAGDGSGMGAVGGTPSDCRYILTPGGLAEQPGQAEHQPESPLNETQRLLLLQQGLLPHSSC
How it was run: as §1

CHEK1 = biological target: T7, CHEK1 (Homo sapiens, UniProt O14757)
T7 construct: purchased Nanosyn (enzymatic panel); SGC in-house recombinant human kinases (DSF panel); Invitrogen (ALK1-6)
T7 sequence (O14757 1-476): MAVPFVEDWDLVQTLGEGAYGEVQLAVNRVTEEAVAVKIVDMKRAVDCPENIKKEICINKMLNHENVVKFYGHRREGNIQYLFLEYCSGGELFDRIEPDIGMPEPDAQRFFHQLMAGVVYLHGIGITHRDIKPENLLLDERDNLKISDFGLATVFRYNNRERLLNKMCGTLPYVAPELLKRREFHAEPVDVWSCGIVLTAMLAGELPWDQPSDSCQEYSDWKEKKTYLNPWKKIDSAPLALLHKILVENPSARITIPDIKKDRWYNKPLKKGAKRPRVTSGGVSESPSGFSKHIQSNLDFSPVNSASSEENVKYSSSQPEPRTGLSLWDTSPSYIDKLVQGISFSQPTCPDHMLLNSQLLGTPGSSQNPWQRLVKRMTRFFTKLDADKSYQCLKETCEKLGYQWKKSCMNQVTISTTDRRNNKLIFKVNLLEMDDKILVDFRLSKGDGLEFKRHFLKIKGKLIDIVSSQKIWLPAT
How it was run: as §1

T5 sequence (P10721 26-976): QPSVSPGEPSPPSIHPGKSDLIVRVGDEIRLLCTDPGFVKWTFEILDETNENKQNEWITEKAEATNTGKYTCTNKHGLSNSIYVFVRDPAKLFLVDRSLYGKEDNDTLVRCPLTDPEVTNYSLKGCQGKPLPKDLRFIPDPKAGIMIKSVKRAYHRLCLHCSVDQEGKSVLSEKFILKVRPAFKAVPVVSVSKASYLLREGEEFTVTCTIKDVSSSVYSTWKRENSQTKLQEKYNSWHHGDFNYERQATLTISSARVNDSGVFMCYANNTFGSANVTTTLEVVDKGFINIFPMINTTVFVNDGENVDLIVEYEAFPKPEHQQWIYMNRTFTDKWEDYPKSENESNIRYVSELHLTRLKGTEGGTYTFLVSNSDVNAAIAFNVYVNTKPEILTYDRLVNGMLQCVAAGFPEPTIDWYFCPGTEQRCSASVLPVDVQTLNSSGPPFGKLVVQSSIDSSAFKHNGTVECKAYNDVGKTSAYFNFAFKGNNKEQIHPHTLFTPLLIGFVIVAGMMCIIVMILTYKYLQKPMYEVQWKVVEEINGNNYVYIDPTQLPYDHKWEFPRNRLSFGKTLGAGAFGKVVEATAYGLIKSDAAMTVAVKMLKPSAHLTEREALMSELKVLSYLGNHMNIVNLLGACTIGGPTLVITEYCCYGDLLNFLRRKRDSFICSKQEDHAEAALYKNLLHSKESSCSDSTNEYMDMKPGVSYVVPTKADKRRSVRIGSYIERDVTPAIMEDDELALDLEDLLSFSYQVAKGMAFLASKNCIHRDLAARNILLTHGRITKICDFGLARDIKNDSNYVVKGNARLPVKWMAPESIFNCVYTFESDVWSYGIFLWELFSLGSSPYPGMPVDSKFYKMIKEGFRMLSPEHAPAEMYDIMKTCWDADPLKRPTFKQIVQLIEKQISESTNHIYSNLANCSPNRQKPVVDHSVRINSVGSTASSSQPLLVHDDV
T4 sequence (Q02763 23-1124): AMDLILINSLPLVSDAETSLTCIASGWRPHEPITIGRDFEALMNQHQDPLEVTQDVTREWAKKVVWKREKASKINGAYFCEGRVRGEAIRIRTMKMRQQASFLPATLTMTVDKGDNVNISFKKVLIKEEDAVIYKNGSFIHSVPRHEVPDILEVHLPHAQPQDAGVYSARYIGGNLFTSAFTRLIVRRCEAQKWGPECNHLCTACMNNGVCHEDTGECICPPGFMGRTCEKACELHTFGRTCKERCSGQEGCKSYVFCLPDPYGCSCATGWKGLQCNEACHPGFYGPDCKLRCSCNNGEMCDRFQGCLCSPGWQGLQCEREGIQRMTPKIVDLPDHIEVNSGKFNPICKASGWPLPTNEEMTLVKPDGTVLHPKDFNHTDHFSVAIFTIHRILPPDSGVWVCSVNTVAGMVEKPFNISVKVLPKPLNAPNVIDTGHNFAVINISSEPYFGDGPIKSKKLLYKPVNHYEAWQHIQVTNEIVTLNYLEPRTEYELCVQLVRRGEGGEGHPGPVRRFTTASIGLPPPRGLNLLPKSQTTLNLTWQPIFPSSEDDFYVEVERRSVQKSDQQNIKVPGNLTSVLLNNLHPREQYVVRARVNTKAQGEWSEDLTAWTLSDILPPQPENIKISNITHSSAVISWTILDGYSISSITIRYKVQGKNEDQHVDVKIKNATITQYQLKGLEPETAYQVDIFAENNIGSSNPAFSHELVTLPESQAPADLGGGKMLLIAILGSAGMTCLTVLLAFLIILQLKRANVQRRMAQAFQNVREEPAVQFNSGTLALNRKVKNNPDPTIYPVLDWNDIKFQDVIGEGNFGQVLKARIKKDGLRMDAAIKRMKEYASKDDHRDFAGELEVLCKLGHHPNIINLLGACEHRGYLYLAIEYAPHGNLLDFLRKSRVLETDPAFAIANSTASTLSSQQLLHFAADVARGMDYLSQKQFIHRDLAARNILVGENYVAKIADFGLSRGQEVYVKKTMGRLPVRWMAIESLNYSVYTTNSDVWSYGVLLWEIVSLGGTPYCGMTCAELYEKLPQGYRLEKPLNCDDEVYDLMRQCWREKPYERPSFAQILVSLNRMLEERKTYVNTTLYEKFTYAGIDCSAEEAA
T3 sequence (O00329 whole entry): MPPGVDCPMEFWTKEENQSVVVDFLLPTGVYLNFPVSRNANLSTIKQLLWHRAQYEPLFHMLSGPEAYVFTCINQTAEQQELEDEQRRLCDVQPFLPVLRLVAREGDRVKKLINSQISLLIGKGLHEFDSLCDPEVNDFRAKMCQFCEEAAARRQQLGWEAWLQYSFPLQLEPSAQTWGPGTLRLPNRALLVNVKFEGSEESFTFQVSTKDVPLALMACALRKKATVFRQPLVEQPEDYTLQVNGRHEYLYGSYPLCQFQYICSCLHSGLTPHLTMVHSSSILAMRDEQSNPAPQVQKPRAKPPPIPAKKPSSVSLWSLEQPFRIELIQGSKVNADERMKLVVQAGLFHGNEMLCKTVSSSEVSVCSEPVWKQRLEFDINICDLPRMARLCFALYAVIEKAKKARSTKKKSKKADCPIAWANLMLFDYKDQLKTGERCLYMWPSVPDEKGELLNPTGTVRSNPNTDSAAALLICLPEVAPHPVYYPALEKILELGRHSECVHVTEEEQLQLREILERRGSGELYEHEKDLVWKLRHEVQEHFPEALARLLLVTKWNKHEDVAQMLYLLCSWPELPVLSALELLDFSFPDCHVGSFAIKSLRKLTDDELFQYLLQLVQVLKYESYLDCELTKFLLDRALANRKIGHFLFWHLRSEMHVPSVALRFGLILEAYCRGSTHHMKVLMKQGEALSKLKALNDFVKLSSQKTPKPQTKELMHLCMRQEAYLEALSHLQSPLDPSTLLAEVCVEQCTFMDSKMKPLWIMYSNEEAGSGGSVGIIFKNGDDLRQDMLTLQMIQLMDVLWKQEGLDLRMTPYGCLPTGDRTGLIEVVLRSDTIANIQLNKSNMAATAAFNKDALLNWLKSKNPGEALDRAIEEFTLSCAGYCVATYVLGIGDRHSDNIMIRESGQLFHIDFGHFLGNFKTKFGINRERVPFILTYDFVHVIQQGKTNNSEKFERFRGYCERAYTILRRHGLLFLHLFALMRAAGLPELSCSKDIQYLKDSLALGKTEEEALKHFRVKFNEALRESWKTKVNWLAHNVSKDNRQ
T3 sequence (P27986 whole entry partner): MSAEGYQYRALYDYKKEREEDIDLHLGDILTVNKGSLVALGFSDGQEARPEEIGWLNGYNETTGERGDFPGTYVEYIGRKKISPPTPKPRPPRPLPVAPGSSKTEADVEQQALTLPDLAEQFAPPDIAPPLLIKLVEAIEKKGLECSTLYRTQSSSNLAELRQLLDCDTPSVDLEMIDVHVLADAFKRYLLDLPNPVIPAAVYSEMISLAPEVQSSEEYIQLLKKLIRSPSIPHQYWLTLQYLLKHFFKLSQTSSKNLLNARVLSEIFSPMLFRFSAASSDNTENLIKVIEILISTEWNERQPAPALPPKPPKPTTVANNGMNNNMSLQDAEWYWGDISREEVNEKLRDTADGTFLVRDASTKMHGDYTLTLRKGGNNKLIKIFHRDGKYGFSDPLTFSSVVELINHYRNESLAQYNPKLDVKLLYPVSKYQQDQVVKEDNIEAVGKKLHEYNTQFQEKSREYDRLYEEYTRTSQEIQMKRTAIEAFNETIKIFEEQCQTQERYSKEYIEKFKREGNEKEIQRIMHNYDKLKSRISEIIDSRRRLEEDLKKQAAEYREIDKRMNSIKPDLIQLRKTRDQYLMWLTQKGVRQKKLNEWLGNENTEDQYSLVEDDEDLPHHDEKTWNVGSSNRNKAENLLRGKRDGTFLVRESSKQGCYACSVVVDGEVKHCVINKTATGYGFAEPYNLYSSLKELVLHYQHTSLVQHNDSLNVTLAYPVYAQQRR

| SMILES | inhibition at 0.1 µM (AURKC) [%] | inhibition at 1 µM (AURKC) [%] | inhibition at 0.1 µM (SGK2) [%] | inhibition at 1 µM (SGK2) [%] | inhibition at 0.1 µM (PI3-K-δ) [%] | inhibition at 1 µM (PI3-K-δ) [%] | inhibition at 0.1 µM (TIE2) [%] | inhibition at 1 µM (TIE2) [%] | inhibition at 0.1 µM (KIT) [%] | inhibition at 1 µM (KIT) [%] | inhibition at 0.1 µM (TYRO3) [%] | inhibition at 1 µM (TYRO3) [%] | inhibition at 0.1 µM (CHEK1) [%] | inhibition at 1 µM (CHEK1) [%] |
| --- | --- | --- | --- | --- | --- | --- | --- | --- | --- | --- | --- | --- | --- | --- |
| COc1cc(-c2cc(-c3cccc(O)c3)cnc2N)cc(OC)c1OC [K02288, 3-[6-amino-5-(3,4,5-trimethoxy-phenyl)-pyridin-3-yl]-phenol] | -1 | 3.2 | 2.7 | 1.3 | 0.8 | 2.5 | 1 | 3 | 4 | 9.2 | 1.8 | 19 | -1 | -2 |
| c1ccc2c(-c3cnn4cc(-c5ccc(N6CCNCC6)cc5)cnc34)ccnc2c1 [LDN-193189] | 4.2 | 25 | 2.3 | 0.2 | -1 | 10 | 2 | 16 | 7 | 41 | 13 | 58 | 2.9 | 0.3 |
